Tests used:
Experiment in all cases: relative viability (nuclei count vs DMSO), 5 days (fraction); higher = more cells survive
NCI-H1915 = tested on: NCI-H1915
Outline: (§1)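 Relative viability divides the nuclei count in treated wells by that in vehicle wells. Lung cancer cell lines were seeded in 1536-well plates, dosed by pin tool the next day, and fixed and stained after 5 days in one step with final 0.05% Triton X-100, 1% formaldehyde and 1 ug/ml Hoechst. Dosing was a single drug or a fixed anchor-drug dose plus five library-drug doses (not always all listed) in √10 steps, and values are medians of duplicate plates imaged at 4×.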

EPLC-272H = tested on: EPLC-272H
Outline: as §1

COR-L 105 = tested on: COR-L 105
Outline: as §1

UMC-11 = tested on: UMC-11
Outline: as §1

NCI-H1755 = tested on: NCI-H1755
Outline: as §1

SK-LU-1 = tested on: SK-LU-1
Outline: as §1

LCLC-97TM1 = tested on: LCLC-97TM1
Outline: as §1

NCI-H358 = tested on: NCI-H358
Outline: as §1

HOP-62 = tested on: HOP-62
Outline: as §1

LXF-289 = tested on: LXF-289
Outline: as §1

NCI-H2342 = tested on: NCI-H2342
Outline: as §1

NCI-H1944 = tested on: NCI-H1944
Outline: as §1

A-427 = tested on: A-427
Outline: as §1

HCC-78 = tested on: HCC-78
Outline: as §1

NCI-H1975 = tested on: NCI-H1975
Outline: as §1

SW 900 = tested on: SW 900
Outline: as §1

LU99A = tested on: LU99A
Outline: as §1

NCI-H1793 = tested on: NCI-H1793
Outline: as §1

NCI-H460 = tested on: NCI-H460
Outline: as §1

HCC-366 = tested on: HCC-366
Outline: as §1

NCI-H2085 = tested on: NCI-H2085
Outline: as §1

NCI-H2170 = tested on: NCI-H2170
Outline: as §1

LC-2-ad = tested on: LC-2-ad
Outline: as §1

Clc1ccc(Nc2nnc(Cc3ccncc3)c3ccccc23)cc1 [Vatalanib] + O=C(CCCCCCC(=O)Nc1ccccc1)NO [Vorinostat] (partner 1 µM)
relative viability (NCI-H1915; first compound 0.04 µM): 0.507 | relative viability (NCI-H1915; first compound 0.1265 µM): 0.544 | relative viability (NCI-H1915; first compound 0.4 µM): 0.587 | relative viability (NCI-H1915; first compound 1.265 µM): 0.482 | relative viability (NCI-H1915; first compound 4 µM): 0.518 | relative viability (EPLC-272H; first compound 0.04 µM): 0.438 | relative viability (EPLC-272H; first compound 0.1265 µM): 0.702 | relative viability (EPLC-272H; first compound 0.4 µM): 0.499 | relative viability (EPLC-272H; first compound 1.265 µM): 0.617 | relative viability (EPLC-272H; first compound 4 µM): 0.561 | relative viability (COR-L 105; first compound 0.04 µM): 0.846 | relative viability (COR-L 105; first compound 0.1265 µM): 0.806 | relative viability (COR-L 105; first compound 0.4 µM): 0.829 | relative viability (COR-L 105; first compound 1.265 µM): 0.905 | relative viability (COR-L 105; first compound 4 µM): 0.794 | relative viability (UMC-11; first compound 0.04 µM): 0.361 | relative viability (UMC-11; first compound 0.1265 µM): 0.469 | relative viability (UMC-11; first compound 0.4 µM): 0.384 | relative viability (UMC-11; first compound 1.265 µM): 0.35 | relative viability (UMC-11; first compound 4 µM): 0.415 | relative viability (NCI-H1755; first compound 0.04 µM): 0.799 | relative viability (NCI-H1755; first compound 0.1265 µM): 0.891 | relative viability (NCI-H1755; first compound 0.4 µM): 0.757 | relative viability (NCI-H1755; first compound 1.265 µM): 0.759 | relative viability (NCI-H1755; first compound 4 µM): 0.694 | relative viability (SK-LU-1; first compound 0.04 µM): 0.829 | relative viability (SK-LU-1; first compound 0.1265 µM): 0.798 | relative viability (SK-LU-1; first compound 0.4 µM): 1 | relative viability (SK-LU-1; first compound 1.265 µM): 0.721 | relative viability (SK-LU-1; first compound 4 µM): 0.8 | relative viability (LCLC-97TM1; first compound 0.04 µM): 0.601 | relative viability (LCLC-97TM1; first compound 0.1265 µM): 0.613 | relative viability (LCLC-97TM1; first compound 0.4 µM): 0.804 | relative viability (LCLC-97TM1; first compound 1.265 µM): 0.65 | relative viability (LCLC-97TM1; first compound 4 µM): 0.649 | relative viability (NCI-H358; first compound 0.04 µM): 0.683 | relative viability (NCI-H358; first compound 0.1265 µM): 0.719 | relative viability (NCI-H358; first compound 0.4 µM): 0.686 | relative viability (NCI-H358; first compound 1.265 µM): 0.713 | relative viability (NCI-H358; first compound 4 µM): 0.632 | relative viability (HOP-62; first compound 0.04 µM): 0.6 | relative viability (HOP-62; first compound 0.1265 µM): 0.557 | relative viability (HOP-62; first compound 0.4 µM): 0.758 | relative viability (HOP-62; first compound 1.265 µM): 0.597 | relative viability (HOP-62; first compound 4 µM): 0.642 | relative viability (LXF-289; first compound 0.04 µM): 0.844 | relative viability (LXF-289; first compound 0.1265 µM): 0.832 | relative viability (LXF-289; first compound 0.4 µM): 0.801 | relative viability (LXF-289; first compound 1.265 µM): 0.712 | relative viability (LXF-289; first compound 4 µM): 0.75 | relative viability (NCI-H2342; first compound 0.04 µM): 0.747 | relative viability (NCI-H2342; first compound 0.1265 µM): 0.714 | relative viability (NCI-H2342; first compound 0.4 µM): 0.741 | relative viability (NCI-H2342; first compound 1.265 µM): 0.762 | relative viability (NCI-H2342; first compound 4 µM): 0.69 | relative viability (NCI-H1944; first compound 0.04 µM): 0.546 | relative viability (NCI-H1944; first compound 0.1265 µM): 0.523 | relative viability (NCI-H1944; first compound 0.4 µM): 0.676 | relative viability (NCI-H1944; first compound 1.265 µM): 0.529 | relative viability (NCI-H1944; first compound 4 µM): 0.526 | relative viability (A-427; first compound 0.04 µM): 0.874 | relative viability (A-427; first compound 0.1265 µM): 0.852 | relative viability (A-427; first compound 0.4 µM): 0.945 | relative viability (A-427; first compound 4 µM): 0.83 | relative viability (HCC-78; first compound 0.04 µM): 0.425 | relative viability (HCC-78; first compound 0.1265 µM): 0.478 | relative viability (HCC-78; first compound 0.4 µM): 0.49 | relative viability (HCC-78; first compound 1.265 µM): 0.465 | relative viability (HCC-78; first compound 4 µM): 0.424 | relative viability (NCI-H1975; first compound 0.04 µM): 0.674 | relative viability (NCI-H1975; first compound 0.1265 µM): 0.691 | relative viability (NCI-H1975; first compound 0.4 µM): 0.726 | relative viability (NCI-H1975; first compound 1.265 µM): 0.66 | relative viability (NCI-H1975; first compound 4 µM): 0.71 | relative viability (SW 900; first compound 0.04 µM): 0.551 | relative viability (SW 900; first compound 0.1265 µM): 0.549 | relative viability (SW 900; first compound 0.4 µM): 0.583 | relative viability (SW 900; first compound 1.265 µM): 0.344 | relative viability (SW 900; first compound 4 µM): 0.591 | relative viability (LU99A; first compound 0.04 µM): 0.554 | relative viability (LU99A; first compound 0.1265 µM): 0.544 | relative viability (LU99A; first compound 0.4 µM): 0.535 | relative viability (LU99A; first compound 1.265 µM): 0.472 | relative viability (LU99A; first compound 4 µM): 0.467 | relative viability (NCI-H1793; first compound 0.04 µM): 0.767 | relative viability (NCI-H1793; first compound 0.1265 µM): 0.845 | relative viability (NCI-H1793; first compound 0.4 µM): 0.97 | relative viability (NCI-H1793; first compound 1.265 µM): 0.66 | relative viability (NCI-H1793; first compound 4 µM): 0.71 | relative viability (NCI-H460; first compound 0.04 µM): 0.859 | relative viability (NCI-H460; first compound 0.1265 µM): 0.636 | relative viability (NCI-H460; first compound 0.4 µM): 0.765 | relative viability (NCI-H460; first compound 1.265 µM): 0.702 | relative viability (NCI-H460; first compound 4 µM): 0.61 | relative viability (HCC-366; first compound 0.04 µM): 0.361 | relative viability (HCC-366; first compound 0.1265 µM): 0.434 | relative viability (HCC-366; first compound 0.4 µM): 0.451 | relative viability (HCC-366; first compound 1.265 µM): 0.254 | relative viability (HCC-366; first compound 4 µM): 0.394 | relative viability (NCI-H2085; first compound 0.04 µM): 0.868 | relative viability (NCI-H2085; first compound 0.1265 µM): 0.796 | relative viability (NCI-H2085; first compound 0.4 µM): 0.852 | relative viability (NCI-H2085; first compound 1.265 µM): 0.747 | relative viability (NCI-H2085; first compound 4 µM): 0.702 | relative viability (NCI-H2170; first compound 0.04 µM): 0.858 | relative viability (NCI-H2170; first compound 0.1265 µM): 0.853 | relative viability (NCI-H2170; first compound 0.4 µM): 0.825 | relative viability (NCI-H2170; first compound 1.265 µM): 0.743 | relative viability (NCI-H2170; first compound 4 µM): 0.764 | relative viability (LC-2-ad; first compound 0.04 µM): 0.695 | relative viability (LC-2-ad; first compound 0.1265 µM): 0.743 | relative viability (LC-2-ad; first compound 0.4 µM): 0.768 | relative viability (LC-2-ad; first compound 1.265 µM): 0.682 | relative viability (LC-2-ad; first compound 4 µM): 0.676

Reference: the supplement of paper PMC10307832
